# Assay results published in patent US20050004111A1, “Selective MMP-13 inhibitors” (AVENTIS PHARMA DEUTSCHLAND GMBH, priority 2003, published 2005).
# Key:
# [1] = molecular target: T1, catalytic domain of human collagenase 3 (MMP-13) (Homo sapiens, UniProt P45452); experiment: Enzyme activity of the catalytic domain of human collagenase 3 (MMP-13), fluorogenic substrate; format: biochemical; conditions: determined graphically from % inhibition, read-out: IC50 MMP13
# T1 construct: Determining the enzyme activity of the catalytic domain of human collagenase 3 (MMP-13); purchased INVITEK, Berlin 30 100 803
# Method: Determining the enzyme activity of the catalytic domain of human collagenase 3 (MMP-13).
# Activating the proenzyme:
# 2 parts by volume of proenzyme are incubated with 1 part by volume of APMA solution at 37° C. for 1.5 hours. The APMA solution is prepared from a 10 mmol/l solution of p-aminophenylmercuric acetate in […] by diluting with 3 parts by volume of tris/HCl buffer, pH 7.5 (see below). The pH is adjusted to between 7.0 and 7.5 by adding 1 mmol/I HCl. After the enzyme has been activated, it is diluted to a concentration of 1.67 μg/ml using the tris/HCl buffer.
# In order to measure the enzyme activity, 10 μl of enzyme solution are incubated for 15 minutes with 10 μl of a 3% (v/v) buffered solution of dimethyl sulfoxide (reaction 1). In order to measure the enzyme inhibitor activity, 10 μl of enzyme solution are incubated with 10 μl of a 3% (v/v) buffered solution of dimethyl sulfoxide containing the enzyme inhibitor (reaction 2).
# In the case of both reaction 1 and reaction 2, the enzyme reaction is monitored by fluorescence spectroscopy (328 nm (extinction)/393 nm (emission)) after adding 10 μl of a 3% (v/v) aqueous solution of dimethyl sulfoxide containing 0.75 mmol of the substrate/l.
# The enzyme activity is depicted as increase in extinction/minute.
# The effect of the inhibitor is calculated as a percentage inhibition using the following formula: % inhibition=100−[(increase in extinction/minute in reaction 2)/(increase in extinction/minute in reaction 1)×100].
# The IC50, i.e., the inhibitor concentration that is required for inhibiting the enzyme activity by 50%, is determined graphically by plotting the percentage inhibitions at different inhibitor concentrations.
# The buffer solution contains 0.05% Brij (Sigma, Deisenhofen, Germany) and 0.1 mol of tris/HCl/l, 0.1 mol of NaCl/l and 0.01 mol of CaCl2/l (pH=7.5). The enzyme solution contains 1.67 μg of the enzyme domain/ml. The substrate solution contains 0.75 mmol/l of the fluorogenic substrate (7-methoxycoumarin4-yl)acetyl-Pro-Leu-Gly-Leu-3-(2′,4′-dinitrophenyl)-L-2,3-diaminopropionyl-Ala-Arg-NH2 (Bachem, Heidelberg, Germany).
# prolyl 4-hydroxylase = molecular target: T2, prolyl 4-hydroxylase (Gallus gallus, UniProt P16924); experiment: Prolyl hydroxylase inhibition (method of Majamaa, version of Kaule and Guenzler); format: biochemical; conditions: enzyme from 14-day-old chick embryos; concentrations of from 0.1 μM to 1 mM
# T2 construct: from tissue; host or cells: 14-day-old chick embryos (homogenate)
# T2 sequence (P16924 1-516): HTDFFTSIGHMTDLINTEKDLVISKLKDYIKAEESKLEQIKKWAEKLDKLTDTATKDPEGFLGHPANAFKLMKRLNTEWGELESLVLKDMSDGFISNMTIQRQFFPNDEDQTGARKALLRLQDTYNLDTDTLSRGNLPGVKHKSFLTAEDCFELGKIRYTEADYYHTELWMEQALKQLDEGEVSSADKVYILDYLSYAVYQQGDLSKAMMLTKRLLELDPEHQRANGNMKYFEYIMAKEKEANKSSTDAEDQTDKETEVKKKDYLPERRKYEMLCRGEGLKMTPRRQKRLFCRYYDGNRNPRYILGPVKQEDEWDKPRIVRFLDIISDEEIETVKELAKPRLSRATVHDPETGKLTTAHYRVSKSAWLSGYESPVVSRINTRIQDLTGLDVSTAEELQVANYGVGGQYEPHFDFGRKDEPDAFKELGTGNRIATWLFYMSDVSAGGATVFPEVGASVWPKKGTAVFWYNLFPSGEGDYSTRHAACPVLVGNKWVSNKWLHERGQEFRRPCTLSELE
# T2 sequence (P09102 23-515 partner): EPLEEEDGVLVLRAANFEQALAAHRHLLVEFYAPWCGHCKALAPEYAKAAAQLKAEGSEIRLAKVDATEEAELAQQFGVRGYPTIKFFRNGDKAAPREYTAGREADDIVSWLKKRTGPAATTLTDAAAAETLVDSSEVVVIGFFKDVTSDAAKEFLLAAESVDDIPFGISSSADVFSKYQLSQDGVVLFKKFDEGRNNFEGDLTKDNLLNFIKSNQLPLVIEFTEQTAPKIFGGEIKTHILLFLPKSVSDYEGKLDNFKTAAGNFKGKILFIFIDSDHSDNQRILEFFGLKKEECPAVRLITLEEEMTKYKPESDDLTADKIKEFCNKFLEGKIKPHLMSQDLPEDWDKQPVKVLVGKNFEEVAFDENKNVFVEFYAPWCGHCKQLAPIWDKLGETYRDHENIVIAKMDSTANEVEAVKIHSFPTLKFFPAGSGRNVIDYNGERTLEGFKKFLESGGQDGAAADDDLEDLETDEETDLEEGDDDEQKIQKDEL
# Method: Determining prolyl hydroxylase inhibition by the method of Majamaa Eur. J. Biochem. 138 (1984) 239-245 using the version of Kaule and guenzler Analytical Biochemistry 184 (1990) 291-297.
# 0.03 μg of prolyl 4-hydroxylase, which was prepared, by the method of Kedersa, Collagen Relat. Res. 1 (1981) 345-353, from homogenized 14-day-old chick embryos by ammonium sulfate precipitation and affinity chromatography on poly-L-proline-coupled Sepharose 4B and subsequent DEAE cellulose chromatography, was incubated, at 37° C. for one hour, in 0.05 ml of an 0.04 M tris-HCl solution (pH=7.5) containing 0.05 mM FeSO4, 0.1 mM 2-oxo-[5-C-14]glutarate (100,000 dpm), 20 μg (0.4 mg/ml) of (Pro-Pro-Gly)10 (Protein Research Foundation, Minoh, Osaka, Japan), 1 mM ascorbic acid, 0.4 mg of catalase/ml, 0.5 mM dithiothreitol and 2 mg of bovine serum albumin/ml, as well as the concentration of the inhibitor to be measured (the comparison experiment was carried out without any inhibitor). After that, 25 μl of a 20 mM succinate and 2-oxaglutarate solution, and also 25 μl of a 0.16 M 2,4-DNPH solution containing 30% HClO4, were added. After the mixture had been incubated at room temperature for a further 30 minutes, it was centrifuged at 3000 g for 5 minutes. The radioactivity of 100 μl of the supernatant was determined by liquid scintillation. Production of the [1-C-14] succinate was given in dpm. Unless otherwise indicated, all the chemicals and reagents were obtained from Sigma, Sigma D-82024 Taufkirchen.
# The compounds tested in Table 3 were used at concentrations of from 0.1 μM to 1 mM. Where it was possible, the IC50 value was determined by graphic extrapolarization of the individual results. This value denotes the concentration of active inhibitors that led to 50% inhibition of the enzyme.
SMILES,IC50 [1] [nM],Prolyl hydroxylase IC50 (prolyl 4-hydroxylase),also measured
"Cc1cc(CNC(=O)c2cc(C(=O)NCc3ccc(OCC(=O)OC(C)(C)C)cc3)ncn2)ccc1F [Example 1, tert-Butyl [4-({[6-(4-fluoro-3-methylbenzylcarbamoyl)pyrimidine-4-carbonyl]amino}methyl)phenoxy]acetate]",12,,
"Cc1cc(CNC(=O)c2cc(C(=O)NCc3ccc(OCC(=O)O)cc3)ncn2)ccc1F [Example 2, [4-({[6-(4-Fluoro-3-methylbenzylcarbamoyl)pyrimidine-4-carbonyl]-amino}methyl)phenoxy]acetic acid]",7,,
COc1cccc(CNC(=O)c2cc(C(=O)NCc3ccc(C)s3)ncn2)c1 [Example 4],24,,
Cc1cc(CNC(=O)c2cc(C(=O)NCc3cccs3)ncn2)ccc1F [Example 7],,No inhibition,
COc1cc(CNC(=O)c2cc(C(=O)NCc3ccc(F)c(Br)c3)ncn2)ccn1 [Example 11],30,,
O=C(NCc1ccncc1)c1cc(C(=O)NCc2ccc(F)c(Cl)c2)ncn1 [Example 14],,No inhibition,
COc1cc(CNC(=O)c2cc(C(=O)NCc3ccc(F)c(Cl)c3)ncn2)ccn1 [Example 20],50,,
COc1cccc(CNC(=O)c2cc(C(=O)NCc3ccncc3)ncn2)c1 [Example 22],,No inhibition,
O=C(NCCc1cccs1)c1cc(C(=O)NCc2ccc(F)c(Cl)c2)ncn1 [Example 28],100,,
"O=C(O)c1cc(C(=O)O)ncn1 [Pyrimidine-4,6-dicarboxylic acid, reference compound]",,,IC50 (prolyl 4-hydroxylase): 1200 nM

# Second part, led by results:
IC50 [1] [nM],Prolyl hydroxylase IC50 (prolyl 4-hydroxylase),SMILES,also measured
200,,Cc1cc(CNC(=O)c2cc(C(=O)NCc3sccc3C)ncn2)ccc1F [Example 35],
500,,COc1cccc(CNC(=O)c2cc(C(=O)NCc3nccs3)ncn2)c1 [Example 44],
,No inhibition,COc1cccc(CNC(=O)c2cc(C(=O)NCc3cccc(OCCN(C)C)c3)ncn2)c1 [Example 69],
,No inhibition,COc1cccc(CNC(=O)c2cc(C(=O)NCc3ccc(OCCN(C)C)cc3)ncn2)c1 [Example 70],
,No inhibition,COc1cccc(CNC(=O)c2cc(C(=O)NCc3ccc(OCCCN(C)C)cc3)ncn2)c1 [Example 71],
,No inhibition,O=C(NCc1ccc(OCCN2CCOCC2)cc1)c1cc(C(=O)NCc2ccc(F)c(Cl)c2)ncn1 [Example 72],
,No inhibition,O=C(NCc1ccc(F)c(Cl)c1)c1cc(C(=O)NCc2cccs2)ncn1 [Example 83],
,No inhibition,Cc1ccc(CNC(=O)c2cc(C(=O)NCc3ccc(F)c(C)c3)ncn2)o1 [Example 84],
